For orientation: melting point means the temperature, or range, at which the solid turns liquid. `C#CCCCCCCCCC(c1ccc(Cl)cc1)C1(S(=O)(=O)c2ccc(OC)cc2)SC(=O)NC1=O` (stereo not given): the melting point is 114 to 121 °C.
To `COC(=O)CCn1c(C(=O)O)cc2ccccc21` belongs 118 to 120 °C.
To `CCc1nc2c(N)nc3ccccc3c2n1CC(C)(C)C(N)=O` belongs 279 to 281 °C.
To `O=C(O)CCc1cn(Cc2ccc(C(=O)NCc3ccc(C(F)(F)F)cc3)cc2)nc1-c1ccccc1` belongs 151 to 152 °C; to `CCCc1nn(-c2ccc(C(F)(F)F)cn2)cc1CCCOc1ccc(CC(=O)O)c(OC)c1`, 135 to 136 °C; to `CC1=C(C)C(N)(Cc2ccccc2)C(C)C2=C1OCC2c1ccc(C)cc1` (stereo not given), 99 to 100 °C.
As to `O[C@@H]1C(Cl)=CCC[C@@H]1O`, the melting point was 111 to 112 °C.
Under `CCCCc1n[nH]c(=S)n(N)c1=O` stands 131 °C.
To `CCCCCCCCOC(C)c1ccc(-c2ccc(C(=O)O)cc2)cc1` (single isomer, unassigned; (+)) belongs 139 to 140 °C; to `Cc1nc(C(N)=O)n(COCc2ccccc2)c1Sc1ccccc1`, 153 to 154 °C.
To `O=C(N/C(=C\c1c[nH]c2ccccc12)C(=O)NCCc1ccccn1)OC1C2CC3CC(C2)CC1C3` (stereo not given) belongs 188 to 200 °C.
The compound `CC1CN(Cc2n[nH]c3ccccc23)CCN1c1ccccc1` (single isomer, unassigned; (+)) registered a melting point of 164 to 165 °C.
For the compound `Cc1nc(-c2ccc3c(c2)CCCC3)c(C(=O)O)o1`, the melting point is 183 to 185 °C.
To `COC(=O)COc1cc2c(c(Cl)c1Cl)C(=O)C(CC#C[Si](C)(C)C)(c1ccccc1)C2` (stereo not given) belongs 126 to 127 °C.
`CC(C)C(C(=O)O)c1onc(-c2ccccc2)c1-c1ccc(S(N)(=O)=O)cc1` (stereo not given): the melting point fell in the range of 148 to 149 °C.
Under `CCOC(=O)C1CCCC1NC(=O)C=C(C)OC` (stereo not given) stands 74 °C.
To `CC1CC(NCC(F)(F)F)=NN1c1ccc(Cl)cc1` (stereo not given) belongs 63 to 64 °C; to `CCCN(c1ccc(C(=O)OCC)cc1)c1nc(=O)c2cccnc2s1`, 155 to 157 °C; to `CC(=O)Nc1ccc(-c2ccc3nc(-c4cccnc4N)n(-c4ccc(CNC(=O)c5ccccc5)cc4)c3n2)cc1`, 299 to 300 °C.
`N#Cc1ccc(NC(=O)c2cccc(OCc3ccc(OC(F)(F)F)cc3)c2)cc1` had a melting point of 138 to 139 °C.
Under `COc1nc(C)cnc1N(C(=O)OCC(C)C)S(=O)(=O)c1cccnc1-c1ccc(O)cc1` stands 144 to 146 °C; under `O=[N+]([O-])CS(=O)(=O)c1ccccc1C(F)(F)F`, 80 °C; under `O=C1c2ccccc2O[C@@H](c2ccccc2)[C@@H]1n1ccnc1` (relative stereo), 199 to 203 °C.
Under `Nc1nccnc1C(=O)NCCc1ncc[nH]1` stands 204 to 208 °C; under `C#CC(C)(C)OC(=O)N1CCNCC1`, 35 to 38 °C; under `Cc1ccc(S(=O)(=O)OCC2COc3ccc4[nH]ccc4c3O2)cc1` (stereo not given), 145 °C.
To `COCNC(=O)C1C(c2ccc(F)cc2)CC2CCC1N2C` (stereo not given) belongs 140 to 142 °C; to `CCC(=O)c1onc2ccccc12`, 51 to 53 °C; to `Brc1cccc(Oc2ccccc2)n1`, 83 to 86 °C.
On to `C/C(=C\c1ccc(C(F)(F)F)cc1)C(=O)O`, for which the melting point is 170 °C.
Under `CCCOC(=O)C1=C(N)NC(C)=C(C(=O)OC)C1c1cccc([N+](=O)[O-])c1` (stereo not given) stands 155 °C.
To `O=C(N(C=Cc1ccc(F)cc1)C=Cc1ccc(F)cc1)C1(O)CSc2ccccc21` (stereo not given) belongs 150 to 151 °C; to `NCCCN1CC=C(c2ccc(Cl)cc2)CC1`, 57 to 58 °C; to `CCCN(CCC)CC(=O)OC1CC2(C)C(C(=O)CO)CCC2C2CCC3CC(O)CCC3(C)C12` (stereo not given), 98 to 102 °C.
`O=C(Nc1ccccc1)c1cc(NC(=S)Nc2cc(Cl)cc(Cl)c2)ccc1F`: the melting point was 195 to 196 °C.
To `O=C(CS(=O)c1ccccc1)Nc1c([N+](=O)[O-])cnn1-c1c(Cl)cc(C(F)(F)F)cc1Cl` (stereo not given) belongs 108 to 110 °C; to `COC(=O)C(=CN(C)C)N(C)c1cc(-c2cccc(OC)c2)ncn1`, 172 to 174 °C.
`COc1ccc(NS(C)(=O)=O)cc1CN1CCC(=O)C(C(c2ccccc2)c2ccccc2)C1` (stereo not given): the melting point is 132 to 135 °C.
Under `CSc1ccc(C(=O)c2c(C)sc3c2CCC3C(=O)O)cc1` (stereo not given) stands 131 to 133 °C; under `O=C(Nc1ccc(N2CCN(C(=O)Nc3ccc(C(=O)O)cc3Cl)CC2)cc1)Nc1ccccc1F`, 250 to 253 °C; under `N#CNC(=NC1CCCC1)Nc1cccc(C(F)(F)F)c1`, 112 to 113 °C.
To `Cc1ccc(S(=O)(=O)Nc2ccc([N+](=O)[O-])cc2C)cc1` belongs 173 to 174 °C; to `CC(=O)OC1CC2CCC3C(CCC4(C)C(O)C(N5CCCCC5)CC34)C2(C)CC1N1CCOCC1` (stereo not given), 148 to 152 °C.
To `Cc1ccsc1C(Cc1ccccc1O)N(C)C=O` (stereo not given) belongs 142 to 144 °C; to `CCCc1cc(Cl)c2oc(C(=O)c3ccccc3)c(C)c2c1OC(=O)c1ccccc1`, 141 to 142 °C; to `FC(F)(F)c1nnc2sc3ccccc3n12`, 140 to 141 °C.
On to `CCC1(c2cccc(O)c2)CCCCN(C)C1` (stereo not given), for which the melting point was in the range of 128 to 133 °C.
Under `CN(Cc1ccccc1)C1CCN(c2ccc(N)cc2)CC1` stands 138 °C.
`CC1=NCCc2c1n(-c1ccccc1)c1ccccc21` registered a melting point of 110 to 112 °C.
To `Cc1cn([C@@H]2C[C@H](C(=O)OC(c3ccccc3)c3ccccc3)N(CCNC(=O)OCC3c4ccccc4-c4ccccc43)C2)c(=O)n(C(=O)c2ccccc2)c1=O` belongs 94 to 98 °C.
`CCCCCCCCCCCCCCCCCCOc1cc(O)cc(C(=O)OC)c1` returned a melting point of 93 to 94 °C.
Regarding `O=C(CCCNC(=O)C(=O)c1cn2c3c(cccc13)CCC2)NO`, the melting point lay in the range of 95 to 97 °C.
Under `COC(=O)c1ccc(CNC(=O)c2ccc(C(=O)NO)s2)cc1` stands 156 to 166 °C.
Under `CN(C)S(=O)(=O)c1cc(S(=O)(=O)N(C)C)c(C(Cl)=C(Cl)Cl)cc1N` stands 238 to 239 °C; under `O=C1C(=O)N(Cc2ccc(C(F)(F)F)o2)c2cccc(Cl)c21`, 148 to 150 °C.
Under `CC=Cc1cccc2c(=O)c(C)c(NC(=O)OC(C)(C)C)oc12` stands 200 to 203 °C; under `O=C(N[C@H]1CC[C@H](CCN2CCN(c3nccc4c3OCC4)CC2)CC1)c1ccc(N2CCOCC2)cc1`, 242 °C; under `COCCOC(=O)C1=C(C)NC(C)=C(C(=O)OC(C)C)C1c1ccccc1F` (stereo not given), 99 to 100 °C.
`c1ccc(CCN2CCC(Nc3nc4ccccc4n3CCc3cccs3)CC2)cc1` showed a melting point of 118 °C.
To `Cc1ccc(-c2ccc(C(=O)Nc3ccc4nc(CN5CCOCC5)ccc4c3)cn2)cc1` belongs 214 to 216 °C.
As to `Cc1ccc2c(NCc3ccc(NC(=O)c4ccc(Cl)cc4)cc3)nc(N3CCCCCC3)nc2c1`, the melting point was 192 to 194 °C.
In turn, `NCCN1CCC(=C2c3ccccc3C=Cc3ccccc32)CC1` had a melting point of 102 °C.
Consider `Cc1c(NC(=O)c2ccc(-c3cc4ccccc4o3)cc2)ccc2cc(CN3CCCC3)cnc12`, for which the melting point was 217 to 218 °C.
To `COC(=O)c1ccc(CCc2ccc(OC)cc2)nc1` belongs 82 °C.
The compound `CS(=O)(=O)Nc1cccc2c1CCC[C@H]2c1c[nH]cn1` had a melting point of 118 to 123 °C.
To `CCc1nc(C)n2nc(C(=O)O)nc2c1Cc1ccc(-c2ccccc2-c2nnn[nH]2)cc1` belongs 194 to 198 °C; to `COC(=O)c1ccc(OCC2CN(c3ccc(NC(C)=O)cc3)C(=O)O2)cc1` (stereo not given), 188 to 190 °C; to `Cc1ccc(F)cc1C(=O)Nc1ccc(C(=O)N2CCc3cn[nH]c3-c3sccc32)cc1`, 310 to 312 °C.
On to `N#Cc1cc([N+](=O)[O-])ccc1Oc1ccc(C(=O)c2ccccc2)cc1`, for which the melting point turned out to be 180 °C.
Regarding `O=C(O)Cc1c(C(=O)c2ccccc2)[nH]c2c(Cl)cccc12`, the melting point is 190 to 193 °C.
`O[C@@H]1c2ccccc2CC[C@H]1NCc1ccccc1` (relative stereo): the melting point fell in the range of 110 to 114 °C.
`COC(=O)c1cncc(OC2SCC(OC(C)=O)C(OC(C)=O)C2OC(C)=O)c1` (stereo not given) displayed a melting point of 50 °C.
In turn, `CC(C)c1ccc2c(c1)C(O)(c1ccccn1)CC(C)(C)CO2` (stereo not given) had a melting point of 72 °C.
To `O=C(c1cccc(C(F)(F)F)c1)N(CCCCn1ccnc1)C1=Nc2cccc3cccc1c23` belongs 165 to 167 °C; to `COC(=O)c1cc(N)c(NS(C)(=O)=O)c(CO)c1`, 150 to 155 °C; to `Cn1ncnc1COc1nc2c(cc1-c1ccoc1)nnn2-c1c(F)cccc1F`, 166 to 169 °C.
Under `O=C1C(c2ccccc2)=C(c2ccccc2)C(=O)N1c1ccccc1` stands 173 to 174 °C.
Under `CCCC(=O)c1cnc2c(OC)cccc2c1Nc1ccc(O)cc1C` stands 252 to 253 °C; under `CCCCn1nnnc1-c1c(O)ccc(-c2cccc(C(=O)OC)c2)c1O`, 93 to 97 °C.
With `CCCCCCCCCCNC(=O)c1cc(C(=O)NCCCCCCCCCC)cc(N(CCCC(=O)OCC)CCCC(=O)OCC)c1`, the melting point lay within 75 to 77 °C.
Compound `CC(C)(CCC#N)c1ccc(C(=O)Nc2cn3c4c(ccc3n2)OCC4)cc1` gave a melting point of 227 to 228 °C.
Turning to `Cn1cc(C2=C(c3c4n(c5ccccc35)C[C@@H]3CN(C=O)C[C@@H]3C4)C(=O)NC2=O)c2ccccc21` (relative stereo), the melting point is 316 to 318 °C.
As to `COc1cc(C(O)CCCCCCCCCCOCc2ccccc2)ccc1OCc1ccccc1` (stereo not given), the melting point fell in the range of 43 to 45 °C.
To `COc1cccc(CNc2ncnc3c2sc2nc(N(C)C)c4c(c23)CC(C)(C)OC4)c1OC` belongs 89.9 to 90.7 °C; to `CN1CCC(C2=CC(=O)CCC2)C1=O` (stereo not given), 42 to 46 °C.

For the origin of these results see a melting point compilation (Tetko et al.; mined from patent text by program, amines drawn as free bases though some values may be those of a salt).
